Experimental findings from patent US7148352B2, “Method of inhibiting neurotrophin-receptor binding” (Queen's University at Kingston, priority 1999, dated 2006) are described below.

Several values for one entry are separate records, joined by “and”; a condition that tells them apart may be missing. Identical values can stand only once.

Holding throughout (design): species or system rat
The test system of assay [1] is p75^NTR (PC12^nnr5 cells, expressing p75^NTR only). In words: 125I-NGF receptor binding to PC12^nnr5 cells in the presence of competitor. The note with it: compound 50 μM, 125I-NGF 1 nM, 2 h at 4° C.; for nnr5 % of Max, Avg: average of three values; for nnr5 % of Max (individual determinations): receptor binding as percentage of binding in absence of competitor. Here is the method: (§1) The radio-iodination and receptor binding of NGF (Sutter et al., 1979) was performed with modifications (Ross et al., 1997) as follows: Evaluation of the ability of NCP compounds to inhibit TrkA and p75^NTR binding was determined by the binding of ^125I-NGF to PC12 cells (rat pheochromocytoma cells expressing TrkA and p75^NTR; obtained from ATCC) and PC12^nnr5 (rat pheochromocytoma cells expressing p75^NTR only; obtained from Dr. L. Greene, Columbia University, NY). The p75^NTR is in a low affinity state and a high affinity state, respectively, in these cell types (Ross et al., 1998). PC12 and PC12^nnr5 cells were grown in RPMI (Sigma) with 10% heat inactivated donor horse serum and 5% fetal calf serum. Cells were harvested by replacing the medium with calcium, magnesium-free balanced salt solution (Gey's solution) and incubating at 37° C. for 15 minutes. Cells were pelleted by centrifugation and suspended in HKR buffer (10 mM Hepes [pH 7.35] containing 125 mM NaCl, 4.8 mM KCl, 1.3 mM CaCl2, 1.2 mM MgSO4, 1.2 mM KH2PO4, 1 g/L glucose and 1 g/L BSA) at a cell concentration of 2×10^6/mL and kept at 4° C. Triplicate tubes were set up for total binding, non-specific binding and binding in the presence of candidate competitor molecule (i.e., a tube for each data point). Each tube contained ^125I-NGF (at 1 nM), 400,000 cells (for a final cell concentration of 10^6/mL) and NGF (50 nM, to define non-specific binding), as required. The tubes were incubated for 2 h at 4° C. and specific binding evaluated by measuring specifically bound DPM (Ross et al., 1997). Data were analysed and the results expressed as receptor binding observed in the presence of competitor (e.g. NCP compounds) as a percentage of receptor binding in the absence of a competitor.

For assay [2], the system named is T1, TrkA and p75^NTR (PC12 cells).
T1 construct: PC12 cells (rat pheochromocytoma cells expressing TrkA and p75^NTR; obtained from ATCC); host or cells: PC12 rat pheochromocytoma cells (intact, in suspension)
Nature of the assay: 125I-NGF receptor binding to PC12 cells in the presence of competitor. Conditions: compound 50 μM; 125I-NGF 1 nM; 2 h at 4° C.; receptor binding as percentage of binding in absence of competitor. Here is the method: as §1

The target of assay [3] is T2, TrkA and p75^NTR (PC12 cells) (Mus musculus, UniProt P01139).
T2 construct: PC12 cells (rat pheochromocytoma cells expressing TrkA and p75^NTR; obtained from ATCC); host or cells: PC12 rat pheochromocytoma cells (intact, in suspension)
The assay is described as above. Conditions: compound 50 μM; 125I-NGF 1 nM; 2 h at 4° C.; average of three values. On the procedure: as §1

T1 sequence (P01139 122-241): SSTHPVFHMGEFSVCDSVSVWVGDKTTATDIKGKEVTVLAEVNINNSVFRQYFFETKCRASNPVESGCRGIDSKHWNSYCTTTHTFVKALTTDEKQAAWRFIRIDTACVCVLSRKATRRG
T2 sequence (P01139 122-241): as above

Turning to `O=C(O)CN1C(=O)c2cccc([N+](=O)[O-])c2C1=O` [Compound 120, 3-nitro-N-(1-carboxymethyl)phthalimide], in assay [1], the “nnr5 % of Max, Avg” value is listed as “= 183 % of Max”; the “nnr5 % of Max (individual determinations)” value was 218 % of Max and 200 % of Max and 130 % of Max. The “PC12 % of Max (individual determinations)” value in assay [2] is 133 % of Max and 92 % of Max and 103 % of Max. The “PC12 % of Max, Avg” value in assay [3] is recorded as “= 109 % of Max”.

Take `O=C(O)CCCCCN1C(=O)c2cccc([N+](=O)[O-])c2C1=O` [Compound 124, 3-nitro-N-(5-carboxypentyl)phthalimide]: in assay [1], the “nnr5 % of Max, Avg” value is “= 153 % of Max”; the “nnr5 % of Max (individual determinations)” value is 166 % of Max and 182 % of Max and 110 % of Max. Moreover, in assay [2], the “PC12 % of Max (individual determinations)” value was 117 % of Max and 71 % of Max and 89 % of Max. The “PC12 % of Max, Avg” value in assay [3] is recorded as “= 92 % of Max”.

For the compound `O=C(O)c1ccc(N2C(=O)c3cccc([N+](=O)[O-])c3C2=O)cc1` [Compound 125, 3-nitro-N-(p-carboxyphenyl)phthalimide], in assay [1], the “nnr5 % of Max, Avg” value is given as “= 49 % of Max”; the “nnr5 % of Max (individual determinations)” value is 47 % of Max (2×) and 54 % of Max. The “PC12 % of Max (individual determinations)” value in assay [2] was 83 % of Max and 87 % of Max and 99 % of Max. In addition, the “PC12 % of Max, Avg” value in assay [3] is “= 90 % of Max”.

For `O=C(O)c1ccccc1N1C(=O)c2cccc([N+](=O)[O-])c2C1=O` [Compound 127, 3-nitro-N-(o-carboxyphenyl)phthalimide], in assay [1], the “nnr5 % of Max, Avg” value is on record as “= 112 % of Max”; the “nnr5 % of Max (individual determinations)” value was 136 % of Max and 129 % of Max and 71 % of Max. Further, the “PC12 % of Max (individual determinations)” value in assay [2] was 140 % of Max and 101 % of Max and 114 % of Max. For the same compound, the “PC12 % of Max, Avg” value in assay [3] is on record as “= 118 % of Max”.

Consider `O=C(O)CCCN1C(=O)c2cccc([N+](=O)[O-])c2C1=O` [Compound 122, 3-nitro-N-(3-carboxypropyl)phthalimide], for which, in assay [1], the “nnr5 % of Max, Avg” value is given as “= 163 % of Max”; the “nnr5 % of Max (individual determinations)” value was 232 % of Max and 152 % of Max and 104 % of Max. Further, the “PC12 % of Max (individual determinations)” value in assay [2] was 106 % of Max and 88 % of Max and 98 % of Max. The “PC12 % of Max, Avg” value in assay [3] is reported as “= 97 % of Max”.

On to `O=C(O)c1cccc(N2C(=O)c3cccc([N+](=O)[O-])c3C2=O)c1` [Compound 126, 3-nitro-N-(m-carboxyphenyl)phthalimide], for which, in assay [1], the “nnr5 % of Max, Avg” value is “= 52 % of Max”; the “nnr5 % of Max (individual determinations)” value is 34 % of Max and 54 % of Max and 69 % of Max. In addition, the “PC12 % of Max (individual determinations)” value in assay [2] was 90 % of Max and 69 % of Max and 72 % of Max. In assay [3], the “PC12 % of Max, Avg” value was “= 77 % of Max”.

With `O=C(O)c1ccc2c(c1)C(=O)N(c1ccccc1)C2=O` [Compound 109, 4-carboxy-N-phenylphthalimide], in assay [1], the “nnr5 % of Max, Avg” value is on record as “= 73 % of Max”; the “nnr5 % of Max (individual determinations)” value is 70 % of Max and 74 % of Max and 75 % of Max. In addition, the “PC12 % of Max (individual determinations)” value in assay [2] is 50 % of Max and 60 % of Max and 57 % of Max. Further, the “PC12 % of Max, Avg” value in assay [3] is reported as “= 56 % of Max”.

Regarding `O=C(O)c1cccc(N2C(=O)c3cccc4cc([N+](=O)[O-])cc(c34)C2=O)c1` [Compound 206, 3-nitro-N-(m-carboxyphenyl)-1,8-naphthalimide], in assay [1], the “nnr5 % of Max, Avg” value is “= 23 % of Max”; the “nnr5 % of Max (individual determinations)” value is 20 % of Max and 17 % of Max and 33 % of Max. Moreover, the “PC12 % of Max (individual determinations)” value in assay [2] is 25 % of Max and 29 % of Max and 35 % of Max. Besides, the “PC12 % of Max, Avg” value in assay [3] is on record as “= 30 % of Max”.

As to `O=C(O)c1cccc(N2C(=O)c3cccc4c([N+](=O)[O-])ccc(c34)C2=O)c1` [Compound 226, 4-nitro-N-(m-carboxyphenyl)-1,8-naphthalimide], in assay [1], the “nnr5 % of Max, Avg” value was “= 12 % of Max”; the “nnr5 % of Max (individual determinations)” value was 13 % of Max (2×) and 10 % of Max. In addition, the “PC12 % of Max (individual determinations)” value in assay [2] is 27 % of Max and 29 % of Max and 35 % of Max. Besides, in assay [3], the “PC12 % of Max, Avg” value is given as “= 30 % of Max”.

With `Nc1ccc2c(c1)C(=O)N(c1ccc(C(=O)O)cc1)C2=O` [Compound 165, 4-amino-N-(p-carboxyphenyl)phthalimide], in assay [1], the “nnr5 % of Max, Avg” value was “= 61 % of Max”; the “nnr5 % of Max (individual determinations)” value was 61 % of Max and 53 % of Max and 68 % of Max. Also, the “PC12 % of Max (individual determinations)” value in assay [2] is 54 % of Max and 53 % of Max and 40 % of Max. Besides, in assay [3], the “PC12 % of Max, Avg” value is “= 49 % of Max”.

As to `O=C(O)CCCCCN1C(=O)c2ccc(C(=O)O)cc2C1=O` [Compound 104, 4-carboxy-N-(5-carboxypentyl)phthalimide], in assay [1], the “nnr5 % of Max, Avg” value was “= 37 % of Max”; the “nnr5 % of Max (individual determinations)” value was 30 % of Max and 65 % of Max and 17 % of Max. Further, the “PC12 % of Max (individual determinations)” value in assay [2] is 51 % of Max and 50 % of Max and 66 % of Max. Besides, the “PC12 % of Max, Avg” value in assay [3] is “= 56 % of Max”.

On to `O=C(O)CCCCCN1C(=O)c2ccc([N+](=O)[O-])cc2C1=O` [Compound 144, 4-nitro-N-(5-carboxypentyl)phthalimide], for which, in assay [1], the “nnr5 % of Max, Avg” value is reported as “= 73 % of Max”; the “nnr5 % of Max (individual determinations)” value is 74 % of Max (2×) and 70 % of Max. Moreover, in assay [2], the “PC12 % of Max (individual determinations)” value was 68 % of Max and 89 % of Max and 77 % of Max. The “PC12 % of Max, Avg” value in assay [3] is “= 78 % of Max”.

Turning to `O=C(O)CCN1C(=O)c2ccc(C(=O)O)cc2C1=O` [Compound 101, 4-carboxy-N-(2-carboxyethyl)phthalimide], in assay [1], the “nnr5 % of Max, Avg” value is on record as “= 81 % of Max”; the “nnr5 % of Max (individual determinations)” value is 89 % of Max and 91 % of Max and 64 % of Max. For the same compound, in assay [2], the “PC12 % of Max (individual determinations)” value is 89 % of Max and 94 % of Max and 139 % of Max. Also, in assay [3], the “PC12 % of Max, Avg” value was “= 107 % of Max”.

Take `O=C(O)c1ccc(CN2C(=O)c3cccc4cc([N+](=O)[O-])cc(c34)C2=O)cc1` [Compound 208, 3-nitro-N-(p-carboxyphenylmethyl)-1,8-naphthalimide]: in assay [1], the “nnr5 % of Max, Avg” value was “= 83 % of Max”; the “nnr5 % of Max (individual determinations)” value is 103 % of Max and 87 % of Max and 58 % of Max. Moreover, the “PC12 % of Max (individual determinations)” value in assay [2] was 56 % of Max and 45 % of Max and 47 % of Max. Further, the “PC12 % of Max, Avg” value in assay [3] is recorded as “= 49 % of Max”.

Take `O=C(O)CN1C(=O)c2ccc([N+](=O)[O-])cc2C1=O` [Compound 140, 4-nitro-N-(1-carboxymethyl)phthalimide]: in assay [1], the “nnr5 % of Max, Avg” value was “= 99 % of Max”; the “nnr5 % of Max (individual determinations)” value was 89 % of Max and 108 % of Max and 100 % of Max. For the same compound, the “PC12 % of Max (individual determinations)” value in assay [2] is 100 % of Max and 126 % of Max and 108 % of Max. In addition, in assay [3], the “PC12 % of Max, Avg” value was “= 111 % of Max”.

For the compound `O=C(O)CCCN1C(=O)c2ccc([N+](=O)[O-])cc2C1=O` [Compound 142, 4-nitro-N-(3-carboxypropyl)phthalimide], in assay [1], the “nnr5 % of Max, Avg” value is listed as “= 51 % of Max”; the “nnr5 % of Max (individual determinations)” value was 52 % of Max and 51 % of Max (2×). Also, the “PC12 % of Max (individual determinations)” value in assay [2] was 55 % of Max and 77 % of Max and 67 % of Max. Moreover, the “PC12 % of Max, Avg” value in assay [3] is “= 66 % of Max”.
